In patent US9359281B2, “Enantiomers of 2-hydroxy derivatives of fatty acids” (UNIVERSITAT DE LES ILLES BALEARS, priority 2011, dated 2016):

Tests used:
enzyme EC 1.14.19.1 = test: [3H]oleate incorporation in U118 cell membranes; format: cell-based, human; conditions: U118, 200 μM, 24 h
Description: FIG. 10. Regulation of the activity of enzyme 1.14.19.1.
Oleic acid is synthesised from esteric acid by the activity of the estearoil-CoA desaturase enzyme (EC 1.14.19.1). This enzyme is crucial in lipid metabolism, as it is a limitant in the synthesis of fatty acids. To see whether this reduction was due to regulation of enzyme EC 1.14.19.1, we incubated U118 cells in the presence or absence of 2OHOA (200 μM, 24 h) and, later, in the presence of [^3H]oleate (5 minutes).

enzyme EC 2.7.8.27 = test: Activity of enzyme EC 2.7.8.27 in U118 cells (NBD-Cer to NBD-SM); format: cell-based, human; conditions: U118, 200 μM, 5 minutes to 24 hours
Description: FIG. 4. Compound 2OHOA acts directly on enzyme EC 2.7.8.27. In A, B, C, in all cases, we incubated cells or cellular extracts or means of incubation with the fluorescent stratum of this enzyme NBD-Cer (nitro-benzoxadiazol-il) ceramide], in the presence or absence (control, white bars) of 2OHOA (black bars). Then, we extracted the lipids and determined the levels of formation of NBD-SM per HPTLC (HP-TLC, high performance thin layer chromatography). The values are presented on the ordinate axis as the average±ESM (n=3-5).
A. In vivo experiment of the activity of enzyme EC 2.7.8.27: we incubated U118 cells with NBD-Cer for 4 hours and then treated them with compound 2OHOA (200 μM) for different periods of time (5, 15, 60 minutes y 24 hours). Later, the cells homogenised and we measured the metabolisation of fluorofor NBD-Cer to become NBD-SM.
The speed of the phenomenon clearly indicates direct and effective interaction between enantiomer 2OHOA and enzyme EC 2.7.8.27. So, this invention refers to the use of the aforementioned compounds as activators (enantiomer [−]), or inhibitors (enantiomer [+]) specific to enzyme EC 2.7.8.27.

[1] = tested on: Raf, MEK, MAP kinase (ERK1 y ERK2), Akt and EGFR; test: Immunoblot of phosphorylased signalling proteins; format: cell-based, human
Description: D: The state of activity (levels of phosphorylased forms) of Akt and EGFR also decreases after incubating with 250 μM of 2OHOA.

Ras protein = test: Ras translocation from membrane to cytoplasm by confocal microscopy; format: cell-based; conditions: human glioma, lung cancer and leukaemia cells
Description: The high levels of 2OHOA and SM in the membrane impede the anchoring of the Ras protein on the membrane.
2OHOA increases levels of SM in tumoral cells treated as explained above. […] SM is lipid in the membrane which impedes the bonding of certain molecules involved in the proliferation of cells, such as the Ras protein. In this way, levels of Ras were measured by confocal microscopy, using an antibody marked fluorescently, and we were able to detect that the marker passed from the membrane (FIG. 6: 95-99% of total detected fluorescence in the membrane before treatment) to the cytoplasm (94-97% of fluorescence detected in the inside of the cell after treatment with 2OHOA) in human glioma, lung cancer and leukaemia cells. The translocation of Ras from the membrane to the cytoplasm means an absence of productive interaction between Ras and Receptor-Tirosine-Kinase (RTK) or between Ras and Raf, so the proteins in MAP kinase chain are not activated and the tumoral cells cease to proliferate and programmed cell death starts. Changes in cell physiology induced by the molecules of present invention, have as intermediate effects (prior to the cancer cells death or the regulation of the activity in other cells), the induction of dramatic reductions in DHFR levels and dramatic increases of GFAP levels (FIG. 6).

IMR90 cells = test: Levels of SM in cell membranes, IMR90; format: cell-based, human; conditions: IMR90 non-tumoral fibroblast, 200 μM [−]2OHOA
Description: (§1) The levels of SM, cultivated in the absence (control) or presence of 200 μM of [−]2OHOA, in normal cell membranes (MRC-5 and IMR90) were measured, and also in several types of tumoral cells (see Table 2). In all cases, we detected that the membranes of tumoral cells have SM levels of about half or a third of that in normal cells (FIG. 1). We can therefore assert that SM concentration is a biomarker which indicates tumorgenesis in human cells. On the other hand, treatments with the molecules of the present invention induce an increase of SM in the tumour cells which is not naturally occurring. […] For example, the spectrophotometry determination of solution fluorescence of the SM levels is a very simple, quick and efficient analysis method (FIG. 1D). Thus, this invention has generated a method for diagnosis for detecting the described pathological processes and pathologies in which there are SM level changes, and also for monitoring the efficiency of the therapy using molecules of the present invention and others of similar activity. Based on this knowledge, this invention also includes kits for diagnosing these diseases.

A172 cells [2] = test: Levels of SM in cell membranes, A172; format: cell-based, human; conditions: A172, 200 μM [−]2OHOA
Description: as §1

HepG2 cells = test: Levels of SM in cell membranes, HepG2; format: cell-based, human; conditions: HepG2, 200 μM [−]2OHOA
Description: as §1

C-6 cells = test: Cell growth inhibition, C-6; format: cell-based, rat; set-up: key: +: inhibition of cell growth; −: absence of effect
A172 cells [3] = test: Cell growth inhibition, A172; format: cell-based, human; set-up: key: +: inhibition of cell growth; −: absence of effect
BXPC3 cells = test: Levels of SM in cell membranes, BXPC3; format: cell-based, human; conditions: BXPC3, 200 μM [−]2OHOA
Description: as §1

1321N1 cells = test: Cell growth inhibition, 1321N1; format: cell-based, human; set-up: key: +: inhibition of cell growth; −: absence of effect
T98G cells [4] = test: Cell growth inhibition, T98G; format: cell-based, human; set-up: key: +: inhibition of cell growth; −: absence of effect
U937 cells = test: Levels of SM in cell membranes, U937; format: cell-based, human; conditions: U937, 200 μM [−]2OHOA
Description: as §1

T98G cells [5] = test: Levels of SM in cell membranes, T98G; format: cell-based, human; conditions: 200 μM [−]2OHOA
Description: as §1

SF268 cells = test: Levels of SM in cell membranes, SF268; format: cell-based, human; conditions: SF268, 200 μM [−]2OHOA
Description: as §1

U87 cells = test: Levels of SM in cell membranes, U87; format: cell-based, human; conditions: U87, 200 μM [−]2OHOA
Description: as §1

MDA-MB-231 cells = test: Levels of SM in cell membranes, MDA-MB-231; format: cell-based, human; conditions: MDA-MB-231, 200 μM [−]2OHOA
Description: as §1

Compound	incorporation of radioactive oleic acid in cell membranes (enzyme EC 1.14.19.1)	activation of enzyme EC 2.7.8.27 in cell cultures (enzyme EC 2.7.8.27)	state of activity (phosphorylased forms) of Akt and EGFR ([1]; 250 μM)	phosphorylased (active) form of Raf and MEK ([1]; 150, 200 o 250 μM)	state of activity of MAP kinase (ERK1 y ERK2) ([1]; 150, 200 o 250 μM)	Ras fluorescence detected in the inside of the cell after treatment (Ras protein)	% SM after treatment (IMR90 cells)	% SM after treatment (A172 cells [2])	% SM after treatment (HepG2 cells)	Effect (anti-proliferation effect) (C-6 cells)	Effect (anti-proliferation effect) (A172 cells [3])	% SM after treatment (BXPC3 cells)	Effect (anti-proliferation effect) (1321N1 cells)	Effect (anti-proliferation effect) (T98G cells [4])	% SM after treatment (U937 cells)	% SM after treatment (T98G cells [5])	% SM after treatment (SF268 cells)	% SM after treatment (U87 cells)	% SM after treatment (MDA-MB-231 cells)
CCCCCCCC/C=C\CCCCCCC(O)C(=O)O (racemic) [2OHOA, 2-hydroxyoleic acid]	significantly less than in control cells	enzymatic activation is visible from the first few minutes of incubation	decreases	reduction in state of the (active) phosphorylased form of both proteins	dramatic reduction in the state of activity	94-97%	–	–	–	–	–	–	–	–	–	–	–	–	–
CCCCCCCC/C=C\CCCCCCC(O)C(=O)O (stereo not shown) [[−]2OHOA] [[−] HOOC—HOCH—(CH2)6—(CH═CH—CH2)1—(CH2)6—CH3]	–	–	–	–	–	–	23%	23%	35%	+	+	26%	+	+	24%	19%	26%	21%	31%
